# Reference: patent publication US20240335431A1, “1-H-PYRROLO[2,3-c]PYRIDINE COMPOUNDS” (Acerta Pharma B.V., priority 2023, published 2024)
# Where two headings read alike, the source gives them in different places.
# Columns and labels:
# [1] = target: hERG (Homo sapiens (Human), UniProt Q12809); assay: hERG assay 1 (standard), SyncroPatch 384PE; assay type: cell-based; conditions: CHO cells, room temperature, up to 40 uM
# Method in brief: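 Automated patch clamp on hERG-expressing CHO-K1 cells at room temperature, +60/−40 mV protocol every 15 s. Six-point cumulative concentrations 139 nM to 40 uM (0.33% DMSO final); IC50 from one-site fit of % inhibition. Wells required ≥30 MegaOhm seal, current >0.2 nA, Z prime >0.4.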
# [2] = Human liver microsomes (HLMs) intrinsic clearance assay; assay type: in vitro ADME
# [3] = human, microsomes, pH 7.4, HLM CLint
# [4] = human, microsomes, 1 µM, pH 7.4
# Chain of hERG (Q12809 whole entry): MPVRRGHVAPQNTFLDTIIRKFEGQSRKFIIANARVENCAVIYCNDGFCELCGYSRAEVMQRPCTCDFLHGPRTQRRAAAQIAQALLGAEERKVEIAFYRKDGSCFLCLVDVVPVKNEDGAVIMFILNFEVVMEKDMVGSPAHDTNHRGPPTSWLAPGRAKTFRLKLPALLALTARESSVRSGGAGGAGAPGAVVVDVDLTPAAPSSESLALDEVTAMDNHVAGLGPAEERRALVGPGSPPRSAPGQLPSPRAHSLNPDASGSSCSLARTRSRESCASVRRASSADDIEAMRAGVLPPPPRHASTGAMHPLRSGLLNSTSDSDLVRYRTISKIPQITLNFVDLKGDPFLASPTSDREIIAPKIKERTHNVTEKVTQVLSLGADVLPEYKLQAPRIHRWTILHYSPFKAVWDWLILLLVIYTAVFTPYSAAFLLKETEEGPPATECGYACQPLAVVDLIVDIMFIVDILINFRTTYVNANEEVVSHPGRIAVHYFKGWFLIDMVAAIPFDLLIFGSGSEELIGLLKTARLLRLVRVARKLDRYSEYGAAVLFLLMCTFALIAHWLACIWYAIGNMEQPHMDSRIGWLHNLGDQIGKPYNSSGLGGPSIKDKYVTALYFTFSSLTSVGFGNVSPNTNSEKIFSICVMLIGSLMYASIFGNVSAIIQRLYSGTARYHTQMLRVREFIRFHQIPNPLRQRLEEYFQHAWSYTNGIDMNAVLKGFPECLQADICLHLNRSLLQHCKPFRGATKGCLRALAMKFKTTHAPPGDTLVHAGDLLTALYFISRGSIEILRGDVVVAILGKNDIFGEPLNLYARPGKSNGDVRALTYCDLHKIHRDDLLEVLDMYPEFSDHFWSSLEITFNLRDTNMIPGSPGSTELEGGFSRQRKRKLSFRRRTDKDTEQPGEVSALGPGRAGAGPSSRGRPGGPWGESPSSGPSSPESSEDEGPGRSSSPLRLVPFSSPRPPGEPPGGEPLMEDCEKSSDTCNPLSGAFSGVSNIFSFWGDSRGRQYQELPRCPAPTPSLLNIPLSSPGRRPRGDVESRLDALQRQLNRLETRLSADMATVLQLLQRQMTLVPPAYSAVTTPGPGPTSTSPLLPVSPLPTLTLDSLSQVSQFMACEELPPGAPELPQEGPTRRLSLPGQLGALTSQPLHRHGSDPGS
"microsomal CLint at 1 µM [2, 3] [µL/min/mg]","HLM CLint [2, 4] [µL/min/mg]",Structure (SMILES),IC50 [1] [µM],"HLM CLint ([2]; 1 mg/mL HLM, NADPH) [µL/min/mg]","microsomal CLint at 1 µM ([2]; human, microsomes, pH 7.4, 1 mg/mL HLM, NADPH, read-out: HLM CLint) [µL/min/mg]"
,194,"Cc1c(C(=O)C2CCN(C(=O)[C@H]3NC[C@@H]4C[C@@H]43)CC2)c2ccncc2n1-c1ccc(F)cc1C(=O)N(C(C)C)C(C)C (single isomer, unassigned) [Example 55-2]",> 40,,
84,,"Cc1c(C(=O)C2CCN(C(=O)[C@H]3NC[C@@H]4C[C@@H]43)CC2)c2ccncc2n1-c1ccc(F)cc1C(=O)N(C(C)C)[C@H](C)C(F)(F)F (single isomer, unassigned) [Example 57-1]",> 38.5,,
,55,"CCN(C(=O)c1cc(F)ccc1-n1c(C)c(C(=O)C2CCN(C(=O)[C@H]3NC[C@@H]4C[C@@H]43)CC2)c2ccncc21)C(C)C (single isomer, unassigned) [Example 48-2]",> 40,,

# More lines, now with the values behind:
Structure (SMILES),"microsomal CLint at 1 µM [2, 3] [µL/min/mg]","HLM CLint [2, 4] [µL/min/mg]",IC50 [1] [µM],"HLM CLint ([2]; 1 mg/mL HLM, NADPH) [µL/min/mg]","microsomal CLint at 1 µM ([2]; human, microsomes, pH 7.4, 1 mg/mL HLM, NADPH, read-out: HLM CLint) [µL/min/mg]"
"CC(C)N(C(=O)c1cc(F)ccc1-n1cc(C(=O)C2CCN(C(=O)[C@H]3NC4CCC3CC4)CC2)c2ccncc21)C(C)C [Example 20, (S)-2-(3-(1-(2-Azabicyclo[2.2.2]octane-3-carbonyl)piperidine-4-carbonyl)-1H-pyrrolo[2,3-c]pyridin-1-yl)-5-fluoro-N,N-diisopropylbenzamide]",27,,> 40,,
"CC(C)N(C(=O)c1cc(F)ccc1-n1cc(C(=O)[C@@H]2CCN(C[C@H]3CC[C@H](NS(C)(=O)=O)CC3)C2)c2ccncc21)C(C)C [Example 4, 5-Fluoro-N,N-diisopropyl-2-(3-((R)-1-(((1r,4R)-4-(methylsulfonamido)-cyclohexyl)methyl)pyrrolidine-3-carbonyl)-1H-pyrrolo[2,3-c]pyridin-1-yl)benzamide]",171,,6.3,,
"CC(C)N(C(=O)c1cc(F)ccc1-n1cc(C(=O)C2CCN(C(=O)[C@H]3N[C@H]4C[C@@H]3[C@@H](F)C4)CC2)c2ccncc21)C(C)C [Example 22, 5-Fluoro-2-(3-(1-((1S,3S,4S,5S)-5-fluoro-2-azabicyclo[2.2.1]heptane-3-carbonyl)piperidine-4-carbonyl)-1H-pyrrolo[2,3-c]pyridin-1-yl)-N,N-diisopropylbenzamide]",91,,> 40,,
"CCN(C(=O)c1cc(F)ccc1-n1c(C)c(C(=O)[C@@H]2CCN(C(=O)[C@@H]3CCC4(CC4)N3)[C@@H](C)C2)c2ccncc21)C(C)C (single isomer, unassigned) [Example 52-2, N-Ethyl-5-fluoro-N-isopropyl-2-(2-methyl-3-((2R*,4S*)-2-methyl-1-((S)-4-azaspiro[2.4]heptane-5-carbonyl)piperidine-4-carbonyl)-1H-pyrrolo[2,3-c]pyridin-1-yl)benzamide]",,,14.2,150,
"CC(C)n1nccc1-c1cc(F)ccc1-n1cc(C(=O)C2CCN(C(=O)[C@H]3N[C@@H]4CC[C@H]3C4)CC2)c2ccncc21 [Example 36, (1-((1R,3S,4S)-2-Azabicyclo[2.2.1]heptane-3-carbonyl)piperidin-4-yl)(1-(4-fluoro-2-(1-isopropyl-1H-pyrazol-5-yl)phenyl)-1H-pyrrolo[2,3-c]pyridin-3-yl)methanone]",58,,> 40,,
"CC(C)N(C(=O)c1cc(F)ccc1-n1cc(C(=O)C2CN(C(=O)[C@H]3N[C@@H]4CC[C@H]3C4)C2)c2ccncc21)C(C)C [Example 5, 2-(3-(1-((1R,3S,4S)-2-Azabicyclo[2.2.1]heptane-3-carbonyl)azetidine-3-carbonyl)-1H-pyrrolo[2,3-c]pyridin-1-yl)-5-fluoro-N,N-diisopropylbenzamide]",35,,> 40,,
"CC(C)c1ncncc1-c1cc(F)ccc1-n1cc(C(=O)C2CCN(C(=O)[C@H]3N[C@@H]4CC[C@H]3C4)CC2)c2ccncc21 [Example 37, (1-((1R,3S,4S)-2-Azabicyclo[2.2.1]heptane-3-carbonyl)piperidin-4-yl)(1-(4-fluoro-2-(4-isopropylpyrimidin-5-yl)phenyl)-1H-pyrrolo[2,3-c]pyridin-3-yl)methanone]",52,,> 40,,
"CCN(C(=O)c1cc(F)ccc1-n1cc(C(=O)C2CCN(C(=O)[C@H]3N[C@@H]4CC[C@H]3C4)CC2)c2ccncc21)C(C)C [Example 31, 2-(3-(1-((1R,3S,4S)-2-Azabicyclo[2.2.1]heptane-3-carbonyl)piperidine-4-carbonyl)-1H-pyrrolo[2,3-c]pyridin-1-yl)-N-ethyl-5-fluoro-N-isopropylbenzamide]",23,,> 40,,
"CC(C)N(C(=O)c1cc(F)ccc1-n1cc(C(=O)C2CCN(C(=O)[C@H]3N[C@@H]4CC[C@H]3C4)CC2)c2c(F)cncc21)C(C)C.O=CO [Example 44, 2-(3-(1-((1R,3S,4S)-2-Azabicyclo[2.2.1]heptane-3-carbonyl)piperidine-4-carbonyl)-4-fluoro-1H-pyrrolo[2,3-c]pyridin-1-yl)-5-fluoro-N,N-diisopropylbenzamide 1·formic acid]",17,,> 40,,
"CC(C)N(C(=O)c1cc(F)ccc1-n1cc(C(=O)C2CCN(C(=O)[C@@H]3CC4(CC4)CN3)CC2)c2ccncc21)C(C)C [Example 26, (S)-2-(3-(1-(5-Azaspiro[2.4]heptane-6-carbonyl)piperidine-4-carbonyl)-1H-pyrrolo[2,3-c]pyridin-1-yl)-5-fluoro-N,N-diisopropylbenzamide]",,,> 40,,51
